Experimental data from ChEMBL document CHEMBL5620409, “Discovery of tetrasubstituted thiophenes as Cisd2 activators: A potential novel therapeutic option in nonalcoholic fatty liver disease” (Eur J Med Chem, 2023).
Blank lines part the entries; values can stand above or below the molecule they belong to. The source made the active and inactive calls. The rule behind the calls is not given here.

Key:
[1] = Metabolic stability in mouse liver microsomes assessed as parent compound remaining at 5 uM in presence of NADPH-generating system measured for 30 mins by LC/MS analysis; format: ADME, Microsome; settings: read-out: Stability
[2] = target: T1, CDGSH iron-sulfur domain-containing protein 2 (Homo sapiens, UniProt Q8N5K1); assay: Activation of Cisd2 (unknown origin) transfected in HEK293 cells incubated for 24 hrs by one-glo luciferase assay; format: cell-based
T1 sequence (Q8N5K1 whole entry): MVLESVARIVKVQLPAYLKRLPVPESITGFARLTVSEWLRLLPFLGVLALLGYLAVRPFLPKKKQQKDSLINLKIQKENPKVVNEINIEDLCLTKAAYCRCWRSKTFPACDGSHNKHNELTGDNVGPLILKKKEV

Mus musculus [3] = assay: Anti-NAFLD activity in heterozygous hepatocyte-specific Cisd2 knockout C57BL/6 mouse assessed as reduction in ballooning degeneration of hepatocytes at 20 mg/kg, po measured for 2 weeks by H and E staining based analysis; format: functional, organism-based
[4] = Toxicity in wild type C57BL/6 mouse assessed as effect on CRE level in serum at 20 mg/kg, po administered for 2 weeks; format: organism-based; settings: in vivo, 336 h
Mus musculus [5] = assay: Anti-NAFLD activity in heterozygous hepatocyte-specific Cisd2 knockout C57BL/6 mouse assessed as abnormal hepatic lipid accumulation in liver at 20 mg/kg, po measured for 2 weeks; format: functional, organism-based
Mus musculus [6] = assay: Anti-NAFLD activity in heterozygous hepatocyte-specific Cisd2 knockout C57BL/6 mouse assessed as effect on triglyceride level in serum at 20 mg/kg, po measured for 12 week; format: functional, organism-based; settings: time 12.0 weeks
[7] = Toxicity in heterozygous hepatocyte-specific Cisd2 knockout C57BL/6 mouse assessed as effect on GPT level in serum at 20 mg/kg, po administered for 2 weeks; format: organism-based; settings: in vivo, 336 h
[8] = Toxicity in heterozygous hepatocyte-specific Cisd2 knockout C57BL/6 mouse assessed as effect on GOT level in serum at 20 mg/kg, po administered for 2 weeks; format: organism-based; settings: in vivo, 336 h
[9] = Toxicity in heterozygous hepatocyte-specific Cisd2 knockout C57BL/6 mouse assessed as effect on CRE level in serum at 20 mg/kg, po administered for 2 weeks; format: organism-based; settings: in vivo, 336 h
Mus musculus [10] = assay: Anti-NAFLD activity in wild type C57BL/6 mouse assessed as fold increase in Cisd2 expression in liver at 20 mg/kg, po measured for 12 week by Western blot analysis; format: functional; settings: time 12 weeks
[11] = Toxicity in heterozygous hepatocyte-specific Cisd2 knockout C57BL/6 mouse assessed as effect on ALT level in serum at 20 mg/kg, po administered for 2 weeks; format: organism-based; settings: in vivo, 336 h
[12] = Toxicity in wild type C57BL/6 mouse assessed as food intake at 20 mg/kg, po measured for 5 consecutive days; format: organism-based; settings: in vivo, 120 h, time 5 day
[13] = Toxicity in wild type C57BL/6 mouse assessed as effect on GPT level in serum at 20 mg/kg, po administered for 2 weeks; format: organism-based; settings: in vivo, 336 h
[14] = Toxicity in wild type C57BL/6 mouse assessed as change in liver histology at 20 mg/kg, po administered for 2 weeks; format: organism-based; settings: in vivo, 336 h
Mus musculus [15] = assay: Anti-NAFLD activity in heterozygous hepatocyte-specific Cisd2 knockout C57BL/6 mouse assessed as fold increase in Cisd2 expression in liver at 20 mg/kg, po measured for 12 week by Western blot analysis; format: functional; settings: time 12 weeks
[16] = Toxicity in wild type C57BL/6 mouse assessed as effect on AST level in serum at 20 mg/kg, po administered for 2 weeks; format: organism-based; settings: in vivo, 336 h
[17] = Toxicity in wild type C57BL/6 mouse assessed as effect on GOT level in serum at 20 mg/kg, po administered for 2 weeks; format: organism-based; settings: in vivo, 336 h
[18] = Toxicity in heterozygous hepatocyte-specific Cisd2 knockout C57BL/6 mouse assessed as effect on BUN level in serum at 20 mg/kg, po administered for 2 weeks; format: organism-based; settings: in vivo, 336 h
[19] = Toxicity in heterozygous hepatocyte-specific Cisd2 knockout C57BL/6 mouse assessed as effect on AST level in serum at 20 mg/kg, po administered for 2 weeks; format: organism-based; settings: in vivo, 336 h
[20] = Toxicity in wild type C57BL/6 mouse assessed as effect on BUN level in serum at 20 mg/kg, po administered for 2 weeks; format: organism-based; settings: in vivo, 336 h
Mus musculus [21] = assay: Anti-NAFLD activity in heterozygous hepatocyte-specific Cisd2 knockout C57BL/6 mouse assessed as reduction in accumulation of fat in liver at 20 mg/kg, po measured for 2 weeks by oil red-O staining based analysis; format: functional, organism-based
Mus musculus [22] = assay: Anti-NAFLD activity in wild type C57BL/6 mouse assessed as effect on triglyceride level in serum at 20 mg/kg, po measured for 12 week; format: functional, organism-based; settings: time 12.0 weeks
[23] = Toxicity in wild type C57BL/6 mouse assessed as effect on body weight at 20 mg/kg, po measured for 2 weeks; format: organism-based; settings: in vivo, 336 h
[24] = Toxicity in wild type C57BL/6 mouse assessed as effect on ALT level in serum at 20 mg/kg, po administered for 2 weeks; format: organism-based; settings: in vivo, 336 h
Mus musculus [25] = assay: Anti-NAFLD activity in heterozygous hepatocyte-specific Cisd2 knockout C57BL/6 mouse assessed as reduction in hepatic steatosis in liver at 20 mg/kg, po measured for 2 weeks by H and E staining based analysis; format: functional, organism-based
[26] = Toxicity in heterozygous hepatocyte-specific Cisd2 knockout C57BL/6 mouse assessed as effect on body weight at 20 mg/kg, po measured for 2 weeks; format: organism-based; settings: in vivo, 336 h

remaining at 0.5 h, 5 µM [1]: 60.6%
EC50 [2]: 197 nM
Compound: CCOC(=O)c1c(N)sc(C(=O)Nc2ccc(C)cc2C)c1C

EC50 [2]: 979 nM
Compound: Cc1ccc(NC(=O)c2sc(N)c(C(N)=O)c2C)c(C)c1

EC50 [2]: 3070 nM
Compound: COC(=O)c1c(N)sc(C(=O)Nc2ccccc2OC)c1C

remaining at 0.5 h, 5 µM [1]: 73.6%
EC50 [2]: 12 nM
Compound: COC(=O)c1c(N)sc(C(=O)Nc2ccc(OC)cc2)c1C

remaining at 0.5 h, 5 µM [1]: 83.7%
EC50 [2]: 82 nM
Compound: COC(=O)c1c(N)sc(C(=O)Nc2ccc(C#N)cc2)c1C

remaining at 0.5 h, 5 µM [1]: 59.2%
EC50 [2]: 23 nM
Compound: COC(=O)c1c(N)sc(C(=O)Nc2cccc(OC)c2)c1C

EC50 [2]: > 10000 nM
Compound: COC(=O)c1c(N)sc(C(=O)Nc2nc3ccccc3s2)c1C

remaining at 0.5 h, 5 µM [1]: 44.5%
EC50 [2]: 153 nM
Compound: COC(=O)c1c(N)sc(C(=O)Nc2nccs2)c1C

EC50 [2]: 553 nM
Compound: CC(=O)c1c(N)sc(C(=O)Nc2ccccc2)c1C

EC50 [2]: 1520 nM
Compound: Cc1ccc(NC(=O)c2sc(N)c(C(=O)OC(C)C)c2C)c(C)c1

EC50 [2]: > 10000 nM
Compound: COC(=O)c1sccc1NC(=O)c1sc(N)c(C(=O)OC)c1C

remaining at 0.5 h, 5 µM [1]: 53.3%
EC50 [2]: 233 nM
Compound: COC(=O)c1c(N)sc(C(=O)Nc2ccccc2C)c1C

remaining at 0.5 h, 5 µM [1]: 27.6%
EC50 [2]: 46 nM
Compound: COC(=O)c1c(N)sc(C(=O)Nc2ccc(C)cc2C)c1C

remaining at 0.5 h, 5 µM [1]: 91.8%
EC50 [2]: 191 nM
Compound: COC(=O)c1c(N)sc(C(=O)Nc2ccc(O)cc2)c1C
Activity (Mus musculus [3]): Active
Activity [4]: Non-Toxic
Activity (Mus musculus [5]): Active
Activity (Mus musculus [6]): Active
Activity [7]: Non-Toxic
Activity [8]: Non-Toxic
Activity [9]: Non-Toxic
fold change (FC) (Mus musculus [10]): 1.3
Activity [11]: Non-Toxic
Activity [12]: Non-Toxic
Activity [13]: Non-Toxic
Activity [14]: Non-Toxic
fold change (FC) (Mus musculus [15]): 2
Activity [16]: Non-Toxic
Activity [17]: Non-Toxic
Activity [18]: Non-Toxic
Activity [19]: Non-Toxic
Activity [20]: Non-Toxic
Activity (Mus musculus [21]): Active
Activity (Mus musculus [22]): Active
Activity [23]: Non-Toxic
Activity [24]: Non-Toxic
Activity (Mus musculus [25]): Active
Activity [26]: Non-Toxic

remaining at 0.5 h, 5 µM [1]: 63.5%
EC50 [2]: 95 nM
Compound: COC(=O)c1c(N)sc(C(=O)Nc2ccccc2)c1C

EC50 [2]: > 10000 nM
Compound: Cc1ccc(NC(=O)c2sc(N)c(C(=O)OCc3ccccc3)c2C)c(C)c1

EC50 [2]: 4440 nM
Compound: COC(=O)c1c(NC(C)=O)sc(C(=O)Nc2ccc(C)cc2C)c1C

EC50 [2]: 2180 nM
Compound: COC(=O)c1c(N)sc(C(=O)Nc2cc(OC)c(OC)c(OC)c2)c1C

remaining at 0.5 h, 5 µM [1]: 54.7%
EC50 [2]: 35 nM
Compound: COC(=O)c1c(N)sc(C(=O)Nc2ccc(N(C)C)cc2)c1C

EC50 [2]: 661 nM
Compound: COC(=O)c1c(N)sc(C(=O)Nc2cccnc2)c1C

EC50 [2]: 2670 nM
Compound: Cc1ccc(NC(=O)c2sc(N)c(C#N)c2C)c(C)c1

EC50 [2]: 1590 nM
Compound: Cc1ccc(NC(=O)c2sc(N)c(C(=O)NCC#N)c2C)c(C)c1

EC50 [2]: 809 nM
Compound: Cc1ccc(NC(=O)c2sc(N)c(C(=O)CO)c2C)c(C)c1

EC50 [2]: 252 nM
Compound: COC(=O)c1c(N)sc(C(=O)Nc2ccc(C(F)(F)F)cc2)c1C

remaining at 0.5 h, 5 µM [1]: 84.9%
EC50 [2]: 34 nM
Compound: COC(=O)c1c(N)sc(C(=O)Nc2ccc(F)cc2)c1C
Activity (Mus musculus [3]): Active
Activity [4]: Non-Toxic
Activity (Mus musculus [5]): Active
Activity (Mus musculus [6]): Active
Activity [7]: Non-Toxic
Activity [8]: Non-Toxic
Activity [9]: Non-Toxic
fold change (FC) (Mus musculus [10]): 1.3
Activity [11]: Non-Toxic
Activity [12]: Non-Toxic
Activity [13]: Non-Toxic
Activity [14]: Non-Toxic
fold change (FC) (Mus musculus [15]): 2
Activity [16]: Non-Toxic
Activity [17]: Non-Toxic
Activity [18]: Non-Toxic
Activity [19]: Non-Toxic
Activity [20]: Non-Toxic
Activity (Mus musculus [21]): Active
Activity (Mus musculus [22]): Active
Activity [23]: Non-Toxic
Activity [24]: Non-Toxic
Activity (Mus musculus [25]): Active
Activity [26]: Non-Toxic

EC50 [2]: 296 nM
Compound: Cc1ccc(NC(=O)c2sc(N)c(C(=O)O)c2C)c(C)c1

EC50 [2]: 2080 nM
Compound: COC(=O)c1cc(C(=O)Nc2ccc(C)cc2C)sc1N

EC50 [2]: 1340 nM
Compound: Cc1ccc(NC(=O)c2sc(N)c(C(=O)OC(C)(C)C)c2C)c(C)c1

remaining at 0.5 h, 5 µM [1]: 0%
EC50 [2]: 164 nM
Compound: CC(=O)c1c(N)sc(C(=O)Nc2ccc(C)cc2C)c1C

remaining at 0.5 h, 5 µM [1]: 53.8%
EC50 [2]: 35 nM
Compound: COC(=O)c1c(N)sc(C(=O)Nc2cccc(C)c2)c1C

EC50 [2]: > 10000 nM
Compound: CNc1sc(C(=O)Nc2ccc(C)cc2C)c(C)c1C(=O)OC

EC50 [2]: 1700 nM
Compound: COC(=O)c1c(N)sc(C(=O)Nc2c(C)cc(C)cc2C)c1C

remaining at 0.5 h, 5 µM [1]: 73.2%
EC50 [2]: 10 nM
Compound: COC(=O)c1c(N)sc(C(=O)Nc2ccc(C)cc2)c1C

remaining at 0.5 h, 5 µM [1]: 49.2%
EC50 [2]: 160 nM
Compound: CC(=O)c1c(N)sc(C(=O)Nc2ccc(F)cc2)c1C
